For test [1], the target named is PDGFRβ (Rattus norvegicus (Rat), UniProt Q05030). The experiment in a line: PDGFRβ Cellular Assay (PDGFRb P-Y751 HTRF, PDGF-BB stimulated A10 cells). Format: cell-based. The settings on record: A10 cells, 3 hours compound, 15 ng/mL PDGFbb for 10 minutes; read-out: PDGFR Cellular IC50. In a few lines:
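Rat A10 cells plated overnight were treated with compound for 3 h, stimulated with rat PDGF-BB (working stock 100 ng/mL in 10% FBS medium) for 10 min, then lysed.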
(In general: TR-FRET usually uses a lanthanide donor and a delayed reading to cut background.)

Test [2] has as its target VEGFR2, unphosphorylated (Homo sapiens (Human), UniProt P35968). The experiment in a line: VEGFR ADP GLO assay. The settings on record: 5 nM VEGFR2, 1.2 mM ATP, 1 mg/mL Srctide, 180 min. Format: biochemical. In a few lines: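 Unphosphorylated kinase (10 nM 2× solution) pre-incubated 30 min at RT with compounds (11-point, 3-fold, top 10 µM), then reacted 180 min with srctide and ATP (2×: 2 mg/mL, 2.4 mM) in HEPES pH 7.5 buffer. ADP read by luminescence. IC50 from 4-parameter fit, normalized to DMSO and 1 µM TAK-593.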
In general terms: In ADP-Glo the light output rises with the ADP produced.

Test [3] deals with Tb-labeled inactive PDGFRβ (Homo sapiens (Human), UniProt P09619). Briefly: biochemical. It counts as binding. The conditions noted are these: read-out: PDGFR Lantha IC50.
The target of test [4] is His6-TEV-PDGFRβ (557-1016) (Homo sapiens (Human), UniProt P09619). Briefly: PDGFRβ HTRF Assay. Format: biochemical. The settings on record: 800 μM ATP, 0.5 μM TK-substrate biotin peptide, 30 min pre-incubation, 3 hours reaction; read-out: PDGFR HTRF IC50.

Consider eight compounds from patent US20240360134A1, “PYRAZOLOPYRIMIDINES AND THEIR USES AS PDGFR INHIBITORS” (priority 2021, published 2024).

Chain of PDGFRβ (Q05030 whole entry, looked up): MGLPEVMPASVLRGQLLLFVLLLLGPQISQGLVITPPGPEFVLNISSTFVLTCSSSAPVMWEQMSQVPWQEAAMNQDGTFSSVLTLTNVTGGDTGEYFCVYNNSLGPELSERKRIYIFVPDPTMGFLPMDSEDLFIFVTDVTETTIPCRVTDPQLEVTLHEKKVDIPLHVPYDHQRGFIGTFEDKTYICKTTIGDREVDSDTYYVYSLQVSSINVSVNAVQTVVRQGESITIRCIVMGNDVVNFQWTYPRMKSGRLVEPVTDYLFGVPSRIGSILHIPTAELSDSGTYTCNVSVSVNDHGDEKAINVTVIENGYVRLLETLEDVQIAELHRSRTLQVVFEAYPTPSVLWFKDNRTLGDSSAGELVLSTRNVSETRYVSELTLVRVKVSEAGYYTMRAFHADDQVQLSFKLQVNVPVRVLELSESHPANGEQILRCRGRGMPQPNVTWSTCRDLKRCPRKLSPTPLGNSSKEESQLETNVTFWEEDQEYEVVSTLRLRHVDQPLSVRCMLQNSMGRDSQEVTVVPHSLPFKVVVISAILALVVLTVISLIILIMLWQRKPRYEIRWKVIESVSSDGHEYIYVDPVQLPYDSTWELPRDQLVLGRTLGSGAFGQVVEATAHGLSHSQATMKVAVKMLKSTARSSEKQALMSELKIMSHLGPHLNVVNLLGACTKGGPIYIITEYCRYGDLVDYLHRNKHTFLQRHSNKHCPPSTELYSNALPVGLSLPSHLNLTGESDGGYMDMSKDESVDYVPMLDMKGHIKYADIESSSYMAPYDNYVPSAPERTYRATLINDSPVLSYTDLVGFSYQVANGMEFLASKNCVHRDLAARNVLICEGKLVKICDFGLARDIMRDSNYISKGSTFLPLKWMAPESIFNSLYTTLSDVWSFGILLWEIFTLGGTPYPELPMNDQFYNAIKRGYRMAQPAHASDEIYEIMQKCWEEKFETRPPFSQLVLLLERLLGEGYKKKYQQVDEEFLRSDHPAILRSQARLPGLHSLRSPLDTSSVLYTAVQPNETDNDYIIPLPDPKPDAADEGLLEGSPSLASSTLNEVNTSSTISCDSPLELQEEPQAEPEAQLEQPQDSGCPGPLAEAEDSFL
Chain of Tb-labeled inactive PDGFRβ (P09619 whole entry, looked up): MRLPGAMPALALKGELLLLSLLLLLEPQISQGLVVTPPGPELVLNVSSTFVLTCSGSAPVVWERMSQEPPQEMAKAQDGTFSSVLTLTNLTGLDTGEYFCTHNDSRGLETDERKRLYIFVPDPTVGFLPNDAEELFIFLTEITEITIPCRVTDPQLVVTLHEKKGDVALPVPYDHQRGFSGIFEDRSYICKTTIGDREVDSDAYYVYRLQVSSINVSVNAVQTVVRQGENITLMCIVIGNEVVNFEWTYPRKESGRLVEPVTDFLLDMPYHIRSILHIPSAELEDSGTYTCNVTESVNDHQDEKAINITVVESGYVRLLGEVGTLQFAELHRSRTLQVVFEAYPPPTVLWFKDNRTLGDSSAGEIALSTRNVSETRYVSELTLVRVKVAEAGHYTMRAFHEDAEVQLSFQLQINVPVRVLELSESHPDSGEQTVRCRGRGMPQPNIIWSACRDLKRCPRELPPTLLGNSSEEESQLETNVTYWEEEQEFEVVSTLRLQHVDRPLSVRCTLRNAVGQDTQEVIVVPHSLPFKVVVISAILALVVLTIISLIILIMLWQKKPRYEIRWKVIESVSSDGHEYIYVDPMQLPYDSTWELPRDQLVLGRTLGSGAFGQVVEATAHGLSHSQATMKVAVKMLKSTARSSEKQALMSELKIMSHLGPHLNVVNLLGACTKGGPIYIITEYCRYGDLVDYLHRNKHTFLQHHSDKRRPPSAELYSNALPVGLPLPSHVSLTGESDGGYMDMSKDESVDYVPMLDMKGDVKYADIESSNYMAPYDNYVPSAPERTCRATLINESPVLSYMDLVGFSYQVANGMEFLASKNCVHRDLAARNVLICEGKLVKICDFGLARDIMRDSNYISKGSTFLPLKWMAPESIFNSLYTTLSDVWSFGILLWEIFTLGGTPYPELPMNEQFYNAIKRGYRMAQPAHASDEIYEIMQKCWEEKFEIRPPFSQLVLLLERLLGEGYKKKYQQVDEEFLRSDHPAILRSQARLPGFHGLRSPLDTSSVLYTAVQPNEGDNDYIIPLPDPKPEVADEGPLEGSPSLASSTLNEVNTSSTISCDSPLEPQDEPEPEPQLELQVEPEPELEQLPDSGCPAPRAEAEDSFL
Chain of His6-TEV-PDGFRβ (557-1016) (P09619 whole entry, looked up): as above
Chain of VEGFR2, unphosphorylated (P35968 whole entry, looked up): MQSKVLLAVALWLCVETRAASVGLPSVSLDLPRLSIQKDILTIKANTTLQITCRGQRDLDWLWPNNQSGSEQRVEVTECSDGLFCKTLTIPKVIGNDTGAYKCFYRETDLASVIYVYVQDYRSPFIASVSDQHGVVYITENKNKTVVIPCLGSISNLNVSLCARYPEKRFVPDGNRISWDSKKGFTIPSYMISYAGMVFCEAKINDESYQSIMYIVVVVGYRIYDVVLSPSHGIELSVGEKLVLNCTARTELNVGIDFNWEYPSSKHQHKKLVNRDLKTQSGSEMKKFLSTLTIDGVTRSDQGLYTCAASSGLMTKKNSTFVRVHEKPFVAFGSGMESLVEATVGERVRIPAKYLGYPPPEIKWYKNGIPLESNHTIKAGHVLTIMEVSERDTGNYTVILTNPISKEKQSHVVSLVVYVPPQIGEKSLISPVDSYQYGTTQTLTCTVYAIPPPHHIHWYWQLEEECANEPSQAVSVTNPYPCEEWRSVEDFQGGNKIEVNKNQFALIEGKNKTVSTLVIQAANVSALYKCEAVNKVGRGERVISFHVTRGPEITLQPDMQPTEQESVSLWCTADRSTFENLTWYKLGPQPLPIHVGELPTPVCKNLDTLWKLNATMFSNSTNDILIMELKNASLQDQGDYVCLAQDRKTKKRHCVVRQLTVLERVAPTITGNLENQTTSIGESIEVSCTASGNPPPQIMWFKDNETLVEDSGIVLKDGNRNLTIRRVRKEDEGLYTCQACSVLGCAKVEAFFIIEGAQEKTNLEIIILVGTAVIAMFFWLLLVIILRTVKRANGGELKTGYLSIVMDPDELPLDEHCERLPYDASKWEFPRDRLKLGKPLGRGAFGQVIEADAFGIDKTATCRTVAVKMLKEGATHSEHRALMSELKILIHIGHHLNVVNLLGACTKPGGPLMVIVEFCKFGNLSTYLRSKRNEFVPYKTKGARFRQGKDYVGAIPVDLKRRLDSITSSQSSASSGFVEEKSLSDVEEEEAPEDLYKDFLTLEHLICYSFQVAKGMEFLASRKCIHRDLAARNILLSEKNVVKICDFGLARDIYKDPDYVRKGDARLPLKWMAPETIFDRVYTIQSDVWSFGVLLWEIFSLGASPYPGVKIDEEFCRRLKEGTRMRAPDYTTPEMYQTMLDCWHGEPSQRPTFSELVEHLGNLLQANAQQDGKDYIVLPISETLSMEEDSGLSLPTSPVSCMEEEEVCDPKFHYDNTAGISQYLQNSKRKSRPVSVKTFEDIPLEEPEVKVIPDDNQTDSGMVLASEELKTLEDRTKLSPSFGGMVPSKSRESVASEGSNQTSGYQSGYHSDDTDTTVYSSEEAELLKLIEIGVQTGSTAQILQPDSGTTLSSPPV

Broadly, the IC50 is the midpoint of a concentration-inhibition curve. On to `Cn1nc(Nc2cc(C(=O)NCCN3CCCC3(C)C)ccc2F)c2cnc(Nc3cncnc3)nc21` [Example 51, N-(2-(2,2-dimethylpyrrolidin-1-yl)ethyl)-4-fluoro-3-((1-methyl-6-(pyrimidin-5-ylamino)-1H-pyrazolo[3,4-d]pyrimidin-3-yl)amino)benzamide], for which the IC50 in test [1] was 17.2 nM; in test [2], more than 7500 nM; in test [3], 9 nM; in test [4], 0.87 nM.

Regarding `Cn1nc(Nc2cc(C(=O)NCCN3CCCC3(C)C)ccc2F)c2cnc(Nc3ccncn3)nc21` [Example 52, N-(2-(2,2-dimethylpyrrolidin-1-yl)ethyl)-4-fluoro-3-((1-methyl-6-(pyrimidin-4-ylamino)-1H-pyrazolo[3,4-d]pyrimidin-3-yl)amino)benzamide], the IC50 in test [1] was 67 nM; in test [2] it was more than 2500 nM; in test [3], 160 nM; in test [4] it was 4.71 nM.

Take `Cc1ncc(C(=O)NCCN2CC(C)(C)C2)cc1Nc1nn(C)c2nc(Nc3cncnc3)ncc12` [Example 55, N-(2-(3,3-dimethylazetidin-1-yl)ethyl)-6-methyl-5-((1-methyl-6-(pyrimidin-5-ylamino)-1H-pyrazolo[3,4-d]pyrimidin-3-yl)amino)nicotinamide]: the IC50 in test [1] is 275 nM; in test [2], more than 7500 nM; in test [3], 9.5 nM; in test [4], 0.55 nM.

For `Cc1ncc(C(=O)NCCN2CCCCC23CC3)cc1Nc1nn(C)c2nc(Nc3cncnc3)ncc12` [Example 56, N-(2-(4-azaspiro[2.5]octan-4-yl)ethyl)-6-methyl-5-((1-methyl-6-(pyrimidin-5-ylamino)-1H-pyrazolo[3,4-d]pyrimidin-3-yl)amino)nicotinamide], the IC50 in test [1] is 9.7 nM; in test [2], more than 7500 nM; in test [3], 3 nM; in test [4], 0.54 nM.

Regarding `Cc1ncc(C(=O)NCCN2CCCC23CC3)cc1Nc1nn(C)c2nc(Nc3cncnc3)ncc12` [Example 57, N-(2-(4-azaspiro[2.4]heptan-4-yl)ethyl)-6-methyl-5-((1-methyl-6-(pyrimidin-5-ylamino)-1H-pyrazolo[3,4-d]pyrimidin-3-yl)amino)nicotinamide], the IC50 in test [1] is 15.6 nM; in test [2], more than 7500 nM; in test [3], 5.6 nM; in test [4], 0.97 nM.

Turning to `Cc1ncc(C(=O)NCCN2CCC3(CC3)C2)cc1Nc1nn(C)c2nc(Nc3cncnc3)ncc12` [Example 58, N-(2-(5-azaspiro[2.4]heptan-5-yl)ethyl)-6-methyl-5-((1-methyl-6-(pyrimidin-5-ylamino)-1H-pyrazolo[3,4-d]pyrimidin-3-yl)amino)nicotinamide], the IC50 in test [1] is 101 nM; in test [2], more than 7500 nM; in test [3], 4.8 nM; in test [4], 0.36 nM.

Turning to `Cc1cc(C(=O)NCCN2CCC[C@@H]2C)sc1Nc1nn(C)c2nc(Nc3cnn(C)c3)ncc12` [Example 60, (S)-4-methyl-5-((1-methyl-6-((1-methyl-1H-pyrazol-4-yl)amino)-1H-pyrazolo[3,4-d]pyrimidin-3-yl)amino)-N-(2-(2-methylpyrrolidin-1-yl)ethyl)thiophene-2-carboxamide], the IC50 in test [1] is 67.2 nM; in test [2] it was more than 7500 nM; in test [3], 9.7 nM; in test [4], 0.65 nM.

As to `Cc1cc(C(=O)NCCN2CC3COCC3C2)sc1Nc1nn(C)c2nc(Nc3cnn(C)c3)ncc12` (centres unmarked) [Example 61, 4-methyl-5-((1-methyl-6-((1-methyl-1H-pyrazol-4-yl)amino) 1H-pyrazolo[3,4-d]pyrimidin-3-yl)amino)-N-(2-(tetrahydro-1H-furo[3,4-c]pyrrol-5(3H)-yl)ethyl)thiophene-2-carboxamide], the IC50 in test [1] stood at 86.8 nM; in test [2], 3860 nM; in test [3], 10.2 nM; in test [4] it was 0.61 nM.
